In data set [1] the test system is primary rat microglia. In words: Cell toxicity (dead cells, size <150 μm2) in LPS assay. The note with it: primary microglia HTS, LPS stimulation.
In data set [2] the test system is primary rat microglia. In words: Cell toxicity (dead cells, size <150 μm2) in coated fibrin (cFib) assay.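 Note: share of dead cells sized under 150 µm2 at 10 µM in fibrin-stimulated microglia HTS.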 The note with it: primary microglia HTS, fibrin stimulation.
The subject of data set [3] is fibrin- and LPS-induced microglia activation. In words: cells. Type of data set: cell-based, rat. The conditions noted are these: quadrant by fibrin and LPS inhibition in HTS of 1907 compounds.
Data set [4] deals with LPS-induced microglia activation. Put plainly: Image-based assay of LPS-induced microglia activation (HTS and dose response). It counts as cell-based, rat. The note with it: primary microglia HTS, LPS stimulation; for inhibition at 10 µM: Rattus norvegicus, Microglia, 48 h, read-out: LPS % inhibition.
For data set [5], the system named is fibrin-induced microglia activation. In words: Image-based assay of fibrin-induced microglia activation (HTS and dose response). It counts as cell-based, rat. The note with it: primary microglia HTS, fibrin stimulation; for inhibition at 10 µM: Rattus norvegicus, Microglia, read-out: Fibrin % inhibition.
Where [6] appears, read: activation = cell size >800 μm2.
Setting [7] is: decreased size (<150 μm^2) as marker of toxicity.
Where [8] appears, read: increased cell size (>800 μm^2) as marker of activation.

Counter-ions that a name gives are not always drawn. Like-named read-outs stand apart in the source and are kept apart here.

Experimental findings from patent publication US20210330611A1, “THERAPY FOR NEUROLOGICAL DISEASES/DISORDERS” (priority 2020, published 2021) are described below.

One may read the inhibition as the drop in the measured response relative to a control, in per cent. Take `CC(C)COC(=O)c1ccc(N)cc1` [Isobutamben]: the “LPS % cell toxicity” value in data set [1] (toxicity = cell size <150 μm2) is 0%. Moreover, the “Fibrin % cell toxicity” value in data set [2] (toxicity = cell size <150 μm2) was determined as 1%. In data set [3], the “Quadrant (FIG. 5b)” value is “Q4”. The inhibition at 10 µM was -1% in data set [4] (setting [6]) and -5% in data set [5] (setting [6]).
Regarding `CCC(NC(C)C)C(O)c1ccc(O)c(O)c1` (centres unmarked) [Isoetarine], the “LPS % cell toxicity” value in data set [1] (toxicity = cell size <150 μm2) stood at 0%. Besides, in data set [2] (toxicity = cell size <150 μm2), the “Fibrin % cell toxicity” value stood at 1%. In addition, the “Quadrant (FIG. 5b)” value in data set [3] is “Q4”. Besides, the inhibition at 10 µM came to 23% in data set [4] (setting [6]) and 21% in data set [5] (setting [6]).
Turning to `CC(=O)OCC(=O)[C@@]1(O)CC[C@H]2[C@@H]3CCC4=CC(=O)C=C[C@]4(C)[C@@]3(F)[C@@H](O)C[C@@]21C` [Isoflupredone Acetate], the “LPS % cell toxicity” value in data set [1] (setting [7]) came to 2%. The “Fibrin % cell toxicity” value in data set [2] (setting [7]) came out at 3%. Moreover, in data set [3], the “Quadrant (FIG. 5b)” value was “Q2”. Also, the inhibition at 10 µM in data set [4] (setting [8]) stood at 90%; in data set [5] (setting [8]) it was 106%.
In the case of `NNC(=O)c1ccncc1` [Isoniazid], the “LPS % cell toxicity” value in data set [1] (toxicity = cell size <150 μm2) came out at 0%. Also, the “Fibrin % cell toxicity” value in data set [2] (toxicity = cell size <150 μm2) is reported as 1%. Further, the “Quadrant (FIG. 5b)” value in data set [3] is “Q4”. Also, the values for the inhibition at 10 µM in data set [4] (setting [6]) and in data set [5] (setting [6]) were 19% and -29%, respectively.
Regarding `CC(C)[N+](C)(CCC(C(N)=O)(c1ccccc1)c1ccccc1)C(C)C` [Isopropamide], the “LPS % cell toxicity” value in data set [1] (toxicity = cell size <150 μm2) came out at 0%. In data set [2] (toxicity = cell size <150 μm2), the “Fibrin % cell toxicity” value is recorded as 0%. For the same compound, the “Quadrant (FIG. 5b)” value in data set [3] is listed as “Q4”. The values for the inhibition at 10 µM in data set [4] (setting [6]) and in data set [5] (setting [6]) were 24% and 19%, respectively.
For the compound `O=[N+]([O-])O[C@@H]1CO[C@H]2[C@@H]1OC[C@@H]2O` [Isosorbide Mononitrate], the “LPS % cell toxicity” value in data set [1] (toxicity = cell size <150 μm2) was 1%. Also, the “Fibrin % cell toxicity” value in data set [2] (toxicity = cell size <150 μm2) came out at 0%. Besides, the “Quadrant (FIG. 5b)” value in data set [3] is reported as “Q4”. Moreover, the inhibition at 10 µM in data set [4] (setting [6]) was 15%; in data set [5] (setting [6]), -17%.
On the same counts, the results for `CC(C)CC(N)=O` [Isovaleramide] are 0%, 1%, “Q4”, 1% and -10%.
For the compound `CC(COc1ccccc1)NC(C)C(O)c1ccc(O)cc1` (centres unmarked) [Isoxsuprine Hydrochloride], the “LPS % cell toxicity” value in data set [1] (toxicity = cell size <150 μm2) is given as 0%. For the same compound, the “Fibrin % cell toxicity” value in data set [2] (toxicity = cell size <150 μm2) is recorded as 0%. In addition, the “Quadrant (FIG. 5b)” value in data set [3] is “Q4”. Besides, the figures for the inhibition at 10 µM in data set [4] (setting [6]) and in data set [5] (setting [6]) were 23% and -13%, respectively.
Turning to `COC(=O)C1=C(C)NC(C)=C(C(=O)OC(C)C)C1c1cccc2nonc12` (centres unmarked) [Isradipine], in data set [1] (toxicity = cell size <150 μm2), the “LPS % cell toxicity” value was found to be 0%. In addition, in data set [2] (toxicity = cell size <150 μm2), the “Fibrin % cell toxicity” value worked out at 1%. In addition, the “Quadrant (FIG. 5b)” value in data set [3] is on record as “Q4”. Also, the results for the inhibition at 10 µM in data set [4] (setting [6]) and in data set [5] (setting [6]) were 2% and 9%, respectively.
On to `COc1ccc(C(=O)NCc2ccc(OCCN(C)C)cc2)cc1OC` [Itopride, Itopride Hydrochloride], for which, in data set [1] (toxicity = cell size <150 μm2), the “LPS % cell toxicity” value is recorded as 0%. In addition, in data set [2] (toxicity = cell size <150 μm2), the “Fibrin % cell toxicity” value is given as 0%. Moreover, the “Quadrant (FIG. 5b)” value in data set [3] is recorded as “Q4”. In data set [4] (setting [6]), this compound yielded an LPS % inhibition of 25%. In data set [5] (setting [6]), the Fibrin % inhibition was −49%.
`C=C(C)[C@H]1CN[C@H](C(=O)O)[C@H]1CC(=O)O` [Kainic Acid]: the “LPS % cell toxicity” value in data set [1] (toxicity = cell size <150 μm2) stood at 0%. In addition, in data set [2] (toxicity = cell size <150 μm2), the “Fibrin % cell toxicity” value is on record as 0%. The “Quadrant (FIG. 5b)” value in data set [3] is reported as “Q4”. Moreover, the inhibition at 10 µM in data set [4] (setting [6]) is 14%; in data set [5] (setting [6]) it was -77%.
In the case of `CNC1(c2ccccc2Cl)CCCCC1=O` (centres unmarked) [Ketamine], the “LPS % cell toxicity” value in data set [1] (toxicity = cell size <150 μm2) is reported as 0%. For the same compound, the “Fibrin % cell toxicity” value in data set [2] (toxicity = cell size <150 μm2) amounted to 1%. The “Quadrant (FIG. 5b)” value in data set [3] is “Q4”. In addition, the inhibition at 10 µM in data set [4] (setting [6]) was -2%; in data set [5] (setting [6]), -86%.
`O=C(c1ccc(F)cc1)C1CCN(CCn2c(=O)[nH]c3ccccc3c2=O)CC1` [Ketanserin Tartrate]: in data set [1] (toxicity = cell size <150 μm2), the “LPS % cell toxicity” value was determined as 0%. Further, the “Fibrin % cell toxicity” value in data set [2] (toxicity = cell size <150 μm2) came out at 1%. Moreover, the “Quadrant (FIG. 5b)” value in data set [3] was “Q4”. In addition, the inhibition at 10 µM stood at 15% in data set [4] (setting [6]) and 17% in data set [5] (setting [6]).
